Assay [1] has as its system Tyrophagus putrescentiae. Nature of the assay: Insecticidal activity against Tyrophagus putrescentiae from control origin in compound treated rapeseed assessed as respiration ppm of co2 at sub-lethal concentration at 25 degC, 85% RH measured after 147 days. The format is functional.
Assay [2] has as its system Tyrophagus putrescentiae. Nature of the assay: Insecticidal activity against Tyrophagus putrescentiae from compound treated origin in compound treated rapeseed assessed as increase in population rate at sub-lethal concentration at 25 degC, 85% RH measured after 147 days. The format is functional, organism-based.
For assay [3], the system named is Tyrophagus putrescentiae. The assay is described as follows: Insecticidal activity against Tyrophagus putrescentiae from control origin in compound treated rapeseed assessed as increase in population rate at sub-lethal concentration at 25 degC, 85% RH measured after 147 days. It counts as functional, organism-based.
In assay [4] the test system is Tyrophagus putrescentiae. The assay is described as follows: Insecticidal activity against Tyrophagus putrescentiae in compound treated rapeseed assessed as mortality (LD95) after 42 days (reference value: 2.4 ug/cm'2). The format is functional.
Assay [5] relates to Tyrophagus putrescentiae. Nature of the assay: Insecticidal activity against Tyrophagus putrescentiae in compound treated rapeseed assessed as mortality (LD95) after 126 days (reference value: 2.4 ug/cm'2). The format is functional.
For assay [6], the system named is Tyrophagus putrescentiae. Nature of the assay: Insecticidal activity against Tyrophagus putrescentiae in compound treated rapeseed assessed as decrease in population at 0.15 to 150 ug/100 g of rapeseed measured after 21 days. It counts as functional, organism-based.
Assay [7] deals with Tyrophagus putrescentiae. Nature of the assay: Insecticidal activity against Tyrophagus putrescentiae in compound treated rapeseed assessed as mortality (LD50) after 42 days (reference value: 0.78 ug/cm'2). It counts as functional.
Assay [8] concerns Tyrophagus putrescentiae. Nature of the assay: Insecticidal activity against Tyrophagus putrescentiae in compound treated rapeseed assessed as mortality (LD95) after 21 days (reference value: 2.4 ug/cm'2). It counts as functional.
Assay [9] has as its system Tyrophagus putrescentiae. Nature of the assay: Insecticidal activity against Tyrophagus putrescentiae in compound treated rapeseed assessed as mortality (LD50) after 147 days (reference value: 0.78 ug/cm'2). The format is functional.
Assay [10] deals with Tyrophagus putrescentiae. The assay is described as follows: Insecticidal activity against Tyrophagus putrescentiae in compound treated rapeseed assessed as mortality (LD50) after 126 days (reference value: 0.78 ug/cm'2). It counts as functional.
Assay [11] concerns Tyrophagus putrescentiae. Nature of the assay: Insecticidal activity against Tyrophagus putrescentiae in compound treated rapeseed assessed as mortality (LD95) after 84 days (reference value: 2.4 ug/cm'2). It counts as functional.
In assay [12] the test system is Tyrophagus putrescentiae. The assay is described as follows: Insecticidal activity against Tyrophagus putrescentiae in compound treated rapeseed assessed as mortality (LD50) after 63 days (reference value: 0.78 ug/cm'2). The format is functional.
Assay [13] relates to Tyrophagus putrescentiae. The assay is described as follows: Insecticidal activity against Tyrophagus putrescentiae in compound treated rapeseed assessed as decrease in population measured after 21 days. The format is functional.
Assay [14] relates to Tyrophagus putrescentiae. The assay is described as follows: Insecticidal activity against Tyrophagus putrescentiae in compound treated rapeseed assessed as mortality (LD95) after 63 days (reference value: 2.4 ug/cm'2). It counts as functional.
The test system of assay [15] is Tyrophagus putrescentiae. The assay is described as follows: Insecticidal activity against Tyrophagus putrescentiae in compound treated rapeseed assessed as mortality (LD95) after 105 days (reference value: 2.4 ug/cm'2). The format is functional.
In assay [16] the test system is Tyrophagus putrescentiae. Nature of the assay: Insecticidal activity against Tyrophagus putrescentiae in compound treated rapeseed assessed as mortality (LD50) after 105 days (reference value: 0.78 ug/cm'2). It counts as functional.
Assay [17] deals with Tyrophagus putrescentiae. The assay is described as follows: Insecticidal activity against Tyrophagus putrescentiae in compound treated rapeseed assessed as mortality after 147 days (reference value: 2.4 ug/cm'2). It counts as functional.
Assay [18] concerns Tyrophagus putrescentiae. The assay is described as follows: Insecticidal activity against Tyrophagus putrescentiae from compound treated origin in compound treated rapeseed assessed as respiration ppm of co2 per gram of mite fresh weight per hr at sub-lethal concentration at 25 degC, 85% RH measured after 147 days. It counts as functional.
The subject of assay [19] is Tyrophagus putrescentiae. Nature of the assay: Insecticidal activity against Tyrophagus putrescentiae in compound treated rapeseed assessed as mortality (LD50) after 84 days (reference value: 0.78 ug/cm'2). It counts as functional.
For assay [20], the system named is Tyrophagus putrescentiae. The assay is described as follows: Insecticidal activity against Tyrophagus putrescentiae in compound treated rapeseed assessed as mortality (LD50) after 21 days (reference value: 0.78 ug/cm'2). The format is functional.

Structures are written as SMILES. Calls of active or inactive are those of the source. The calls are words filed in the database; no cut-off is given here.

Regarding `Cc1c(COC(=O)[C@@H]2[C@H](/C=C(\Cl)C(F)(F)F)C2(C)C)cccc1-c1ccccc1` [BIFENTHRIN], the Activity came to 896 ppm/g/hr with Tyrophagus putrescentiae [1] and 745 ppm/g/hr in the assay with Tyrophagus putrescentiae [18]. The result in the assay with Tyrophagus putrescentiae [2] and with Tyrophagus putrescentiae [3] was inactive. For the same compound, the LD95 in the assay with Tyrophagus putrescentiae [4] was 2.4 microg/cm2; in the assay on Tyrophagus putrescentiae [5], 1.6 microg/cm2; in the assay with Tyrophagus putrescentiae [8], 1.6 microg/cm2; in the assay on Tyrophagus putrescentiae [11], 2.3 microg/cm2; in the assay on Tyrophagus putrescentiae [14] it was 2 microg/cm2; in the assay with Tyrophagus putrescentiae [15], 2.9 microg/cm2. In addition, in the assay with Tyrophagus putrescentiae [17], the LD95 is recorded as 1.8 microg/cm2. Further, the outcome with Tyrophagus putrescentiae [6] was Active. In addition, the LD50 in the assay on Tyrophagus putrescentiae [7] came out at 0.65 microg/cm2; in the assay on Tyrophagus putrescentiae [9] it was 0.16 microg/cm2; in the assay with Tyrophagus putrescentiae [10], 0.44 microg/cm2; with Tyrophagus putrescentiae [12], 0.24 microg/cm2; in the assay on Tyrophagus putrescentiae [16], 1.14 microg/cm2; in the assay with Tyrophagus putrescentiae [19] it was 0.46 microg/cm2. In addition, the LD50 with Tyrophagus putrescentiae [20] stood at 0.44 microg/cm2. Moreover, in the assay on Tyrophagus putrescentiae [13], the ED50 amounted to 2.7 µg.

Values taken from ChEMBL document CHEMBL3045151, “Long-term pre-exposure of the pest mite Tyrophagus putrescentiae to sub-lethal residues of bifenthrin on rapeseed did not affect its susceptibility to bifenthrin” (2011).
